According to PubChem BioAssay AID1259407 (Chemical Carcinogenesis Research Information System (CCRIS), 2018):
Calls of active or inactive are those of the source. No rule for the calls is given here.

System: CCRIS mutagenicity, Ames/micronucleus/aberration tests
Experiment: CCRIS mutagenicity studies
[1] = Test System: AMES SALMONELLA TYPHIMURIUM, Strain/Indicator: TA98, Metabolic Activation: NONE, Method: PREINCUBATION
[2] = Test System: CHINESE HAMSTER V-79, Strain/Indicator: V-79/6-THIOGUANINE, Metabolic Activation: NONE
[3] = Test System: MOUSE LYMPHOMA, Strain/Indicator: L5178Y (TK+/TK-), Metabolic Activation: NONE, Method: SUSPENSION/PLATE
[4] = Test System: AMES SALMONELLA TYPHIMURIUM, Strain/Indicator: TA100, Metabolic Activation: NONE, Method: PREINCUBATION
[5] = Test System: AMES SALMONELLA TYPHIMURIUM, Strain/Indicator: TA1535, Metabolic Activation: NONE, Method: PREINCUBATION
[6] = Test System: AMES SALMONELLA TYPHIMURIUM, Strain/Indicator: TA1537, Metabolic Activation: NONE, Method: PREINCUBATION

O=[N+]([O-])c1cccc2nc3ccccc3nc12
mutagenic call (Test System: AMES SALMONELLA TYPHIMURIUM, Strain/Indicator: TA98(NR), Metabolic Activation: NONE, Method: PREINCUBATION): active; positive
mutagenic call [1]: inactive; negative

C=CCO
mutagenic call (End Point: In vitro chromosomal aberrations, Test System: Chinese hamster lung (CHL/IU) cells, Metabolic Activation: Rat, Liver, S9, Phenobarbital and 5,6-benzoflavone): active; positive (structural changes and ploidy). toxicity at 0.008 mg/ml.
mutagenic call [2]: active; positive
mutagenic call [3]: active; positive. reevaluation of results: positive
mutagenic call (Test System: Mouse lymphoma, Strain/Indicator: L5178Y (tk+/tk-), Metabolic Activation: Rat, Liver, S-9, Aroclor 1254, Method: Suspension/plate): inactive; negative

CCCCCCCCCCCCCC(=O)O[C@@H]1[C@@H](C)[C@@]2(O)[C@@H](C=C(CO)C[C@]3(O)C(=O)C(C)=C[C@@H]23)[C@@H]2C(C)(C)[C@]12OC(C)=O
mutagenic call (End Point: IN VITRO CHROMOSOMAL ABERRATIONS, Test System: CHL/IU CELLS, Metabolic Activation: NONE): inactive; negative
mutagenic call (End Point: IN VITRO MICRONUCLEUS, Test System: CHL/IU CELLS, Metabolic Activation: NONE): inactive; negative

COc1cc(N=Nc2ccc(N)cc2)c(C)cc1N=Nc1c(S(=O)(=O)O)cc2ccc(N)cc2c1O
mutagenic call (Test System: AMES SALMONELLA TYPHIMURIUM, Strain/Indicator: TA98, Metabolic Activation: NONE, Method: STANDARD PLATE): inactive; negative
mutagenic call (Test System: AMES SALMONELLA TYPHIMURIUM, Strain/Indicator: TA98, Metabolic Activation: RAT, LIVER, S-9, AROCLOR 1254, Method: STANDARD PLATE): active; positive
mutagenic call (Test System: AMES SALMONELLA TYPHIMURIUM, Strain/Indicator: TA100, Metabolic Activation: NONE, Method: STANDARD PLATE): inactive; negative
mutagenic call (Test System: AMES SALMONELLA TYPHIMURIUM, Strain/Indicator: TA100, Metabolic Activation: RAT, LIVER, S-9, AROCLOR 1254, Method: STANDARD PLATE): active; positive
mutagenic call (Test System: AMES SALMONELLA TYPHIMURIUM, Strain/Indicator: TA1538, Metabolic Activation: NONE, Method: STANDARD PLATE): inactive; negative
mutagenic call (Test System: AMES SALMONELLA TYPHIMURIUM, Strain/Indicator: TA1538, Metabolic Activation: RAT, LIVER, S-9, AROCLOR 1254, Method: STANDARD PLATE): active; positive

C[C@H]1COc2c(C3(N)CC3)c(F)cc3c(=O)c(C(=O)O)cn1c23
mutagenic call [1]: inactive; negative
mutagenic call (Test System: AMES SALMONELLA TYPHIMURIUM, Strain/Indicator: TA98, Metabolic Activation: RAT, LIVER, S-9, PHENOBARBITAL AND 5,6-BENZOFLAVONE, Method: PREINCUBATION): inactive; negative
mutagenic call [4]: inactive; negative
mutagenic call (Test System: AMES SALMONELLA TYPHIMURIUM, Strain/Indicator: TA100, Metabolic Activation: RAT, LIVER, S-9, PHENOBARBITAL AND 5,6-BENZOFLAVONE, Method: PREINCUBATION): inactive; negative
mutagenic call [5]: inactive; negative
mutagenic call (Test System: AMES SALMONELLA TYPHIMURIUM, Strain/Indicator: TA1535, Metabolic Activation: RAT, LIVER, S-9, PHENOBARBITAL AND 5,6-BENZOFLAVONE, Method: PREINCUBATION): inactive; negative
mutagenic call [6]: inactive; negative
mutagenic call (Test System: AMES SALMONELLA TYPHIMURIUM, Strain/Indicator: TA1537, Metabolic Activation: RAT, LIVER, S-9, PHENOBARBITAL AND 5,6-BENZOFLAVONE, Method: PREINCUBATION): inactive; negative
mutagenic call (Test System: E. COLI, Strain/Indicator: WP2 UVRA, Metabolic Activation: NONE, Method: PREINCUBATION): inactive; negative
mutagenic call (Test System: E. COLI, Strain/Indicator: WP2 UVRA, Metabolic Activation: RAT, LIVER, S-9, PHENOBARBITAL AND 5,6-BENZOFLAVONE, Method: PREINCUBATION): inactive; negative

CCCCCCC(C)COC(=O)c1ccccc1C(=O)OCC(C)CCCCCC (stereo not drawn)
mutagenic call (Test System: AMES SALMONELLA TYPHIMURIUM, Strain/Indicator: TA98, Metabolic Activation: HAMSTER, LIVER, S-9, AROCLOR 1254 (10%), Method: PREINCUBATION): inactive; negative
mutagenic call [1]: inactive; negative
mutagenic call (Test System: AMES SALMONELLA TYPHIMURIUM, Strain/Indicator: TA98, Metabolic Activation: RAT LIVER S-9, AROCLOR, Method: PREINCUBATION): inactive; negative
mutagenic call (Test System: AMES SALMONELLA TYPHIMURIUM, Strain/Indicator: TA98, Metabolic Activation: RAT, LIVER, S-9, AROCLOR 1254 (10%), Method: PREINCUBATION): inactive; negative
mutagenic call (Test System: AMES SALMONELLA TYPHIMURIUM, Strain/Indicator: TA100, Metabolic Activation: HAMSTER, LIVER, S-9, AROCLOR 1254 (10%), Method: PREINCUBATION): inactive; negative
mutagenic call [4]: inactive; negative
mutagenic call (Test System: AMES SALMONELLA TYPHIMURIUM, Strain/Indicator: TA100, Metabolic Activation: RAT LIVER S-9, AROCLOR, Method: PREINCUBATION): inactive; negative
mutagenic call (Test System: AMES SALMONELLA TYPHIMURIUM, Strain/Indicator: TA100, Metabolic Activation: RAT, LIVER, S-9, AROCLOR 1254 (10%), Method: PREINCUBATION): inactive; negative
mutagenic call (Test System: AMES SALMONELLA TYPHIMURIUM, Strain/Indicator: TA1535, Metabolic Activation: HAMSTER, LIVER, S-9, AROCLOR 1254 (10%), Method: PREINCUBATION): inactive; negative
mutagenic call [5]: inactive; negative
mutagenic call (Test System: AMES SALMONELLA TYPHIMURIUM, Strain/Indicator: TA1535, Metabolic Activation: RAT LIVER S-9, AROCLOR, Method: PREINCUBATION): inactive; negative
mutagenic call (Test System: AMES SALMONELLA TYPHIMURIUM, Strain/Indicator: TA1535, Metabolic Activation: RAT, LIVER, S-9, AROCLOR 1254 (10%), Method: PREINCUBATION): inactive; negative
mutagenic call (Test System: AMES SALMONELLA TYPHIMURIUM, Strain/Indicator: TA1537, Metabolic Activation: HAMSTER, LIVER, S-9, AROCLOR 1254 (10%), Method: PREINCUBATION): inactive; negative
mutagenic call [6]: inactive; negative
mutagenic call (Test System: AMES SALMONELLA TYPHIMURIUM, Strain/Indicator: TA1537, Metabolic Activation: RAT LIVER S-9, AROCLOR, Method: PREINCUBATION): inactive; negative
mutagenic call (Test System: AMES SALMONELLA TYPHIMURIUM, Strain/Indicator: TA1537, Metabolic Activation: RAT, LIVER, S-9, AROCLOR 1254 (10%), Method: PREINCUBATION): inactive; negative
mutagenic call [3]: inactive; negative
mutagenic call (Test System: MOUSE LYMPHOMA, Strain/Indicator: L5178Y (TK+/TK-), Metabolic Activation: RAT LIVER S-9, Method: SUSPENSION/PLATE): inactive; negative

O=C(O)Cc1ccccc1[N+](=O)[O-]
mutagenic call [1]: inactive; negative
mutagenic call [4]: active; positive
mutagenic call [5]: active; positive
mutagenic call [6]: inactive; negative
mutagenic call (Test System: AMES SALMONELLA TYPHIMURIUM, Strain/Indicator: TA1538, Metabolic Activation: NONE, Method: PREINCUBATION): active; positive

OC1=C2O[C@@H]2CC[C@H]1O
mutagenic call [2]: active; positive
